This is an account of results in article PMC3214968 (Journal of medicinal chemistry, 2011).

The target in experiment [1] is T1, matriptase activation (Homo sapiens, UniProt Q9Y5Y6).
T1 sequence (Q9Y5Y6 1-855): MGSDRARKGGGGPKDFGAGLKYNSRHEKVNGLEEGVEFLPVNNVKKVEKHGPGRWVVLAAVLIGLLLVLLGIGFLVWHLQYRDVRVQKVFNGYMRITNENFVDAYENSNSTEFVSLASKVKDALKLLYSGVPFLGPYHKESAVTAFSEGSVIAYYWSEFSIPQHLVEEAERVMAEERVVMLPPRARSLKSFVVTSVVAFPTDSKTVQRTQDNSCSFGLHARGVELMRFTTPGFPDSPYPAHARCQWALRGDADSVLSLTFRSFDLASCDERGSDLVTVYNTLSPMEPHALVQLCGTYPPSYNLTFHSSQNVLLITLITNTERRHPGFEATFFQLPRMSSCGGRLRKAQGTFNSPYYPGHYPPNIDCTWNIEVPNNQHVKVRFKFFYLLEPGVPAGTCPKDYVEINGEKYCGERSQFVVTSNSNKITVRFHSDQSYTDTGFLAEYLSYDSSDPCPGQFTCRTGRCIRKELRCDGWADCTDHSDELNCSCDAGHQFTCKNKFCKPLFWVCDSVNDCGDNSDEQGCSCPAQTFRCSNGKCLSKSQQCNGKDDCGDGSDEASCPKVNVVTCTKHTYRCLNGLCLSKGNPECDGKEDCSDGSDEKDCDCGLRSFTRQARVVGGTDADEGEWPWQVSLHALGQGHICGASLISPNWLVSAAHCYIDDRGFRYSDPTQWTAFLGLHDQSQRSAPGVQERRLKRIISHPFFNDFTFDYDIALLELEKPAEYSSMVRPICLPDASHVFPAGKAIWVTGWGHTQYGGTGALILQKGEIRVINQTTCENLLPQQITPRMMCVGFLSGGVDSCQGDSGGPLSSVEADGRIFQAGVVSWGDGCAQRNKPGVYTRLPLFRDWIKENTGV
The format is cell-based. As to conditions: 184 A1N4 intact cells; for Inhibition of matriptase activation by immunoblot, increasing concentrations: pH 6.0, mAb M24 and M69. In general terms: In western blotting, separated proteins are transferred to a membrane and probed.

Experiment [2] concerns the target T1, matriptase activation. The experiment can be described thus: Cell-free in vitro matriptase activation assay. Format: biochemical. Conditions: insoluble fractions of 184 A1N4 cell homogenates, pH 6.0.
The target of experiment [3] is T1, matriptase activation. Put plainly: Acid-induced matriptase activation in HaCaT keratinocytes, immunoblot. Format: cell-based. As to conditions: HaCaT cells, pH 6.0, dose-dependent.
The next experiment has as its system prostasin activation. Put plainly: Acid-induced prostasin activation in HaCaT keratinocytes, immunoblot. Format: cell-based, human. As to conditions: HaCaT cells, pH 6.0, dose-dependent.
Experiment [4] concerns the target T2, matriptase zymogen activation (Homo sapiens, UniProt Q9Y5Y6).
T2 sequence (Q9Y5Y6 1-855): T1 sequence (Q9Y5Y6 1-855)
The experiment can be described thus: Cell-based, ELISA-like matriptase activation assay. Conditions: 184 A1N4 cells, pH 6.0 buffer, 20 min, ELISA-like assay and immunoblot. In general terms: In an ELISA, binding on a coated surface is turned into a signal by an enzyme label.

As to `Cc1nc(N2C(=O)C(O)=C(C(=O)c3ccccc3)C2c2cccs2)sc1C` (centres unmarked) [compound 4, 4-benzoyl-1-(4,5-dimethylthiazol-2-yl)-3-hydroxy-5-(thiophen-2-yl)-1H-pyrrol-2(5H)-one], the “Inhibition of matriptase activation by immunoblot, increasing concentrations” value (from here on “Inhibition … increasing concentrations”) on matriptase activation [1] is recorded as “same pattern of inhibition”. For the same molecule, the “Inhibition of matriptase activation in the cell-free system” value (shortened to “Inhibition … in the cell-free system”) at matriptase activation [2] is given as “suppress matriptase activation in a dose-dependent manner”. Besides, the “Inhibition of acid-induced activation of matriptase” value at matriptase activation [3] is “same pattern of inhibition”. The “Inhibition of acid-induced activation of prostasin” value (“Inhibition … of prostasin” below) in the experiment on prostasin activation was “same pattern of inhibition”.

As for `O=C(C1=C(O)C(=O)N(c2nccs2)C1c1cccs1)c1cccs1` (centres unmarked) [compound 1, 3-hydroxy-1-(thiazol-2-yl)-5-(thiophen-2-yl)-4-(thiophene-2-carbonyl)-1H-pyrrol-2(5H)-one], on matriptase activation [1], the “Inhibition … increasing concentrations” value is listed as “same pattern of inhibition”. At matriptase activation [2], the “Inhibition … in the cell-free system” value is reported as “suppress matriptase activation in a dose-dependent manner”. In addition, the “Inhibition of acid-induced activation of matriptase” value at matriptase activation [3] was “same pattern of inhibition”. Further, in the experiment with prostasin activation, the “Inhibition … of prostasin” value is on record as “same pattern of inhibition”.

On to `Cc1nc(N2C(=O)C(O)=C(C(=O)c3cccs3)C2c2ccccc2)sc1C` (centres unmarked) [compound 3, 1-(4,5-dimethylthiazol-2-yl)-3-hydroxy-5-phenyl-4-(thiophene-2-carbonyl)-1H-pyrrol-2(5H)-one], for which, at matriptase activation [1], the “Inhibition … increasing concentrations” value was “same pattern of inhibition”. Besides, the “Inhibition … in the cell-free system” value at matriptase activation [2] was “suppress matriptase activation in a dose-dependent manner”. Also, the “Inhibition of acid-induced activation of matriptase” value on matriptase activation [3] was “same pattern of inhibition”. Besides, the “Inhibition … of prostasin” value in the experiment on prostasin activation is recorded as “same pattern of inhibition”.

With `Cc1nc(N2C(=O)C(O)=C(C(=O)c3cccs3)C2c2cccs2)sc1C` (centres unmarked) [compound 2, 1-(4,5-dimethylthiazol-2-yl)-3-hydroxy-5-(thiophen-2-yl)-4-(thiophene-2-carbonyl)-1H-pyrrol-2(5H)-one], the “120-kDa matriptase-HAI-1 complex (matriptase activation) by immunoblot” value on matriptase activation [1] (5 μM compound, pH 6.0) was “no detectable 120-kDa complex”. Further, the “Inhibition … in the cell-free system” value at matriptase activation [2] is reported as “suppress matriptase activation in a dose-dependent manner”. For the same molecule, the “Inhibition of acid-induced activation of matriptase” value at matriptase activation [3] was “clearly inhibited”. Also, the “Inhibition … of prostasin” value in the experiment with prostasin activation was “clearly inhibited”.

For the molecule Sodium chloride [NaCl], the “NaCl-mediated inhibition of acid-induced matriptase activation” value in experiment [4] is given as “dose-dependent manner”.
